Source: BigSolDB 2.1

O=C1CCCCCN1
Conditions | solubility (mole fraction)
in acetonitrile, 278.85 K | 0.149
in acetonitrile, 283.65 K | 0.187
in acetonitrile, 288.25 K | 0.236
in acetonitrile, 293.55 K | 0.294
in acetonitrile, 298.45 K | 0.359
in acetonitrile, 303.65 K | 0.427
in acetonitrile, 308.15 K | 0.486
in acetonitrile, 313.15 K | 0.558
in acetonitrile, 318.65 K | 0.637
in acetonitrile, 323.15 K | 0.725
in benzene, 279.25 K | 0.2
in benzene, 284.15 K | 0.232
in benzene, 288.55 K | 0.27
in benzene, 293.15 K | 0.31
in benzene, 297.85 K | 0.361
in benzene, 303.05 K | 0.423
in benzene, 307.25 K | 0.482
in benzene, 313.25 K | 0.566
in benzene, 317.45 K | 0.631
in benzene, 321.75 K | 0.701
in cyclohexane, 283.65 K | 0.0042
in cyclohexane, 288.25 K | 0.00616
in cyclohexane, 292.85 K | 0.00897
in cyclohexane, 297.95 K | 0.0144
in cyclohexane, 302.95 K | 0.0244
in cyclohexane, 307.25 K | 0.0373
in cyclohexane, 312.55 K | 0.0617
in cyclohexane, 318.35 K | 0.108
in cyclohexane, 322.65 K | 0.163
in ethyl acetate, 278.85 K | 0.103
in ethyl acetate, 283.65 K | 0.127
in ethyl acetate, 288.35 K | 0.156
in ethyl acetate, 292.95 K | 0.192
in ethyl acetate, 298.05 K | 0.243
in ethyl acetate, 302.85 K | 0.304
in ethyl acetate, 307.15 K | 0.364
in ethyl acetate, 312.35 K | 0.459
in ethyl acetate, 317.15 K | 0.557
in ethyl acetate, 321.55 K | 0.654
